In assay [1] the target is T1, human DP2 receptor (Homo sapiens, UniProt Q9Y5Y4).
T1 construct: expressed in transfected cells
T1 sequence (Q9Y5Y4 1-395): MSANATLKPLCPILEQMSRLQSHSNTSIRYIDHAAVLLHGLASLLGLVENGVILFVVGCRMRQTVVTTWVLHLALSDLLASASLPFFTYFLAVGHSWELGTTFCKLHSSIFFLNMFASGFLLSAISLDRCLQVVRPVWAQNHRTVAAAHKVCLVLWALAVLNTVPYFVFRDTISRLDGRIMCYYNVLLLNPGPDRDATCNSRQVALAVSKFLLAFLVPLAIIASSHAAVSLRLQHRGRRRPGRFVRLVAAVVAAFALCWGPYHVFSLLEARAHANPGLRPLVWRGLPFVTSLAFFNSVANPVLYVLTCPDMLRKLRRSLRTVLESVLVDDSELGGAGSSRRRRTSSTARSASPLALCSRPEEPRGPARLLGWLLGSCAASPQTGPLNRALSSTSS
Put plainly: DP2/CRTH2 radioligand binding assay using [3H]PGD2. Conditions: membranes of HEK293 cells expressing recombinant human DP2. Here is the method: The ability of a compound to bind to the human DP2 receptor is assessed via a radioligand binding assay using [^3H]PGD2. HEK293 cells stably expressing recombinant human DP2 are resuspended in 10 mM Hepes, 7.4 containing 1 mM DTT, lysed and centrifuged at 75,000×g to pellet the membranes. The membranes are resuspended in 10 mM Hepes, 7.4 containing 1 mM DTT and 10% glycerol to approximately 5 mg protein/ml. Membranes (2-10 μg protein/well) are incubated in 96-well plates with 1 nM [^3H]PGD2 and test compound in Assay Buffer (50 mM Hepes, 10 mM MnCl2, 1 mM EDTA, plus or minus 0.2% human serum albumin, pH 7.4) for 60 minutes at room temperature. The reactions are terminated by rapid filtration through Whatman GF/C glass fibre filter plates. The filter plates were pre-soaked in 0.33% polythylenimine for 30 minutes at room temperature then washed in Wash Buffer (50 mM Hepes, 0.5 M NaCl pH 7.4) prior to harvesting. After harvesting, the filter plates are washed 3 times with 1 ml cold Wash Buffer then dried. Scintillant is then added to the plates and the radioactivity retained on the filters is determined on a Packard TopCount (Perkin Elmer). Specific binding is determined as total radioactive binding minus non-specific binding in the presence of 10 μM PGD2. IC50s were determined using GraphPad prism analysis of drug titration curves.

The target in assay [2] is T2, human DP1 receptor (Homo sapiens, UniProt Q13258).
T2 construct: tissue Biological Specialty Corporation; host or cells: human platelets, membrane preparation
T2 sequence (Q13258 1-359): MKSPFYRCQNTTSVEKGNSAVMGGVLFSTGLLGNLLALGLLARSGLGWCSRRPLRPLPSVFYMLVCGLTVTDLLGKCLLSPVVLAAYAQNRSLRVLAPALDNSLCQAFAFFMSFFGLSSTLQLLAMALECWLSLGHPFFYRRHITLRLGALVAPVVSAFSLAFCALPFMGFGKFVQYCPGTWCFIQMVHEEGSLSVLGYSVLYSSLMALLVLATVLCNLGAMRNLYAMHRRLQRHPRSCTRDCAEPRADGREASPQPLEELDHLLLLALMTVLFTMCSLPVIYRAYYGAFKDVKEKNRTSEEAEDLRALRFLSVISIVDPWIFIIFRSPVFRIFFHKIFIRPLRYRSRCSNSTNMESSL
The assay is described as follows: DP1 radioligand membrane binding assay using [3H]BWA868C. As to conditions: human platelet membranes; read-out: hDP1. Here is the method:
The ability of a compound to bind to the human DP1 receptor is evaluated via a radioligand membrane binding assay using the DP1 selective synthetic ligand [^3H]BWA868C. Packed human platelets (Biological Specialty Corporation), are resuspended in 6 volumes of Hepes/HBSS buffer (10 mM Hepes, 1 mM DTT in Hanks Balanced Salt Solution (HBSS)), lysed and centrifuged at 75,000×g to pellet the membranes. Membranes are resuspended in Hepes/HBSS buffer to approximately 12 mg protein/ml. Membranes (20 μg protein/well) are incubated in 96-well plates with 2 nM [^3H]BWA868C and test compound in Assay Buffer (50 mM Hepes, 10 mM MnCl2, 1 mM EDTA, plus or minus 0.2% human serum albumin, pH 7.4) for 60 minutes at room temperature. The reactions are terminated by rapid filtration through Whatman GF/C glass fibre filter plates. The filter plates are pre-soaked in 0.33% polethylenimine for 30 minutes at room temperature then washed in Wash Buffer (50 mM Hepes, 0.5 M NaCl pH 7.4) prior to harvesting. […] Scintillant is then added to the plates and the radioactivity retained on the filters is determined on a Packard TopCount (Perkin Elmer). Specific binding is determined as total radioactive binding minus non-specific binding in the presence of 10 μM BW A868C. IC50 values are determined using GraphPad prism analysis of drug titration curves.

Setting [3] is: plus 0.2% human serum albumin, read-out: hDP2 μM (+HSA).
[4] abbreviates: without human serum albumin, read-out: hDP2.

Like-named read-outs stand apart in the source and are kept apart here. A value given as a limit tells only on which side of the number the result lay.

The record followed here is patent US20120004233A1, “TRICYCLIC COMPOUNDS AS ANTAGONISTS OF PROSTAGLANDIN D2 RECEPTORS” (AMIRA PHARMACEUTICALS, INC, priority 2009, published 2012).

With `CN(C1CCc2c(CC(=O)O)c3ccccn3c2C1)S(=O)(=O)c1ccc(F)cc1` (stereo not drawn) [Compound 1-1, {3-[(4-Fluoro-benzenesulfonyl)-methyl-amino]-1,2,3,4-tetrahydro-pyrido[1,2-a]indol-10-yl}-acetic acid], the results for the IC50 in assay [1] (setting [3]), in assay [1] (setting [4]) and in assay [2] were below 300 nM, below 300 nM and above 1000 nM, respectively.
On to `CN(C1CCc2c(c3ccccn3c2CC(=O)O)C1)S(=O)(=O)c1ccc(F)cc1` (stereo not drawn) [Compound 2-1, {9-[(4-Fluoro-benzenesulfonyl)-methyl-amino]-7,8,9,10-tetrahydro-pyrido[2,1-a]isoindol-6-yl}-acetic acid], for which the IC50 in assay [1] (setting [3]) is below 300 nM; in assay [1] (setting [4]), below 300 nM; in assay [2], above 1000 nM.
